Here are results for 13 compounds from patent US5648349A, “PLA2 inhibitors” (Monsanto Company, priority 1995, dated 1997).

Where two headings read alike, the source gives them in different places.

For assay [1], the system named is purified calcium-independent canine myocardial PLA2. As to the kind of experiment: Calcium-Independent PLA2 Assay (purified canine myocardial cytosolic PLA2, release of radiolabeled oleic acid). Type of assay: biochemical. The settings on record: pH 7.0, 6.4 mM EGTA, 1 μM substrate, 5 min at 37° C., read-out: IC50 Canine Heart PLA2. Here is the method:
This assay consists of determining the amount of radiolabeled fatty acid which is liberated from the radiolabeled phospholipid substrate by purified calcium-independent canine myocardial PLA2 in the presence of varying concentrations of the inhibitor. The concentration of inhibitor which decreases the activity of the enzyme to 50% of the activity observed in the absence of that inhibitor is determined. This concentration is defined as the IC50.
Calcium-Independent PLA2 Assay
Purified canine myocardial cytosolic PLA2 was isolated from an ATP-agarose eluate as described by Wolf, R. A., and Gross, R. W., J. Biol. Chem., 260, 7295-7303 (1985). The calcium-independent myocardial PLA2 was incubated with selected concentrations (10^-10 to 10^-4 M) of test compound in 168 mM Tris-Cl, 6.4 mM EGTA (a calcium chelator) (pH 7.0) for 5 min. at 25° C. Appropriate controls were performed in the absence of test compound. Catalysis was initiated by injection of 1 μM radiolabeled substrate (1-O-(Z)-(1'-hexadecenyl)-2-[9,10^-3 H]-oleoyl-3-phosphorylcholine). After a 5 min. incubation at 37° C., reaction products were extracted with n-butanol, separated by thin layer chromatography, and quantified by scintillation spectrometry. PLA2 activity was compared in the presence and absence of test compound and the IC50 was determined.

The target of assay [2] is T1, human synovial fluid PLA2 (Homo sapiens, UniProt P14555).
T1 construct: Purified human synovial fluid PLA2; tissue R. C; Franson (Medical College of Virginia, Richmond, Va.); host or cells: human synovial fluid
T1 sequence (P14555 21-144): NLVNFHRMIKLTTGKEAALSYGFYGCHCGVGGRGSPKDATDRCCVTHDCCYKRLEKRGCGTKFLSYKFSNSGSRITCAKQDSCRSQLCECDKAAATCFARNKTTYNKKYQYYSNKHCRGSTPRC
Put plainly: Millimolar Calcium-Dependent PLA2 Assay (human synovial fluid PLA2, [14C]-oleate labeled E. coli substrate). Format: biochemical. The settings on record: pH 7.0, 5 mM CaCl2, 30 min at 37° C., ">>" = little or no inhibition at highest concentration used. The text has this:
(§1) Specifically, one micromolar calcium-dependent mammalian PLA2 assay was used, i.e., sheep platelet PLA2, and two millimolar calcium-dependent mammalian PLA2 assays were used, i.e., human synovial fluid PLA2 and porcine pancreatic PLA2. The PLA2 enzymes represent different groups of PLA2 enzymes. Myocardial PLA2, platelet PLA2 and secreted PLA2 enzymes (human synovial fluid PLA2 and porcine pancreatic PLA2) have very different calcium requirements, which may be typical of their respective classes.
(§2) Millimolar Calcium-Dependent PLA2 Assays
Purified human synovial fluid PLA2 (purified by the procedure of Fawzy, A. A. and Franson, R. C. Biophys. J. 49, 533a [1986]) was obtained from R. C. Franson (Medical College of Virginia, Richmond, Va.). PLA2 activity was measured by using [^14 C]-oleate labeled autoclaved E. coli as substrate as described by Franson, R. C., Patriarca, P., and Elsbach, P. J., Lipid Res. 15, 380-388 (1974). The assay was performed at 37° C. for 30 min. in a final volume of 100 μL 50 mM Hepes buffer (pH 7.0) containing 150 mM NaCl, 5 mM CaCl2, and E. coli cells (corresponding to 10 nmol phospholipid). The test compound or control vehicle was preincubated with PLA2 for 5 min., followed by adding E. coli to initiate the reaction. The reaction was terminated by adding 2 mL tetrahydrofuran. The reaction product, [^14 C]-oleic acid, was isolated using a 1 mL Bond Elute--NH2 column and counted by liquid scintillation spectrometry.

The test system of a further assay is sheep platelet PLA2. Put plainly: Micromolar Calcium-Dependent PLA2 Assay (sheep platelet cytosolic PLA2). Type of assay: biochemical. The settings on record: pH 7.2, 1 μM CaCl2, 1 μM substrate, 10 min at 37° C.
Excerpt: as §1
Micromolar Calcium-Dependent PLA2 Assay
Homogeneous sheep platelet cytosolic PLA2 was prepared as described by Loeb, L. A., and Gross, R. W., J. Biol. Chem., 261, 10467-10470 (1986). The purified calcium-dependent platelet PLA2 was preincubated in 70 mM Tris-Cl (pH 7.2) containing 1 μM CaCl2 and test compound for 5 min. at 25° C. Catalysis was initiated by injection of 1 μM radiolabeled substrate (1-O-(Z)-(1'-hexadecenyl)-2-[9,10^-3 H]-oleoyl-3-phosphorylcholine). After a 10 min. incubation period at 37° C., reaction products were extracted with n-butanol, separated by thin layer chromatography, and quantified by scintillation spectrometry. PLA2 activity was compared in the presence and absence of test compound and the IC50 was determined.
See Zupan, L. A., et al, "Calcium is sufficient but not necessary for activation of sheep platelet cytosolic phospholipase A2 ", FEBS Letters, Vol. 284, No. 1, 27-30 (1991).

A further assay deals with T2, porcine pancreatic PLA2 (Sus scrofa, UniProt P00592).
T2 construct: Purified porcine pancreatic PLA2 was obtained from Sigma; purchased Sigma (St. Louis, Mo.); host or cells: porcine pancreas
T2 sequence (P00592 23-146): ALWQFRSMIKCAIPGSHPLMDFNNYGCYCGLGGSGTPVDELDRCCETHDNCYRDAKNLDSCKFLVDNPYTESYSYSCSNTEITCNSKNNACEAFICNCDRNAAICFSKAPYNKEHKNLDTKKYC
Put plainly: Millimolar Calcium-Dependent PLA2 Assay (porcine pancreatic PLA2, [14C]-oleate labeled E. coli substrate). Format: biochemical.
Excerpt: as §1, §2
Purified porcine pancreatic PLA2 was obtained from Sigma (St. Louis, Mo.). PLA2 activity was measured by using [14C]-oleate labeled autoclaved E. coli as described by Franson, Patriarca and Elsbach (referenced above). The assay was performed at 37° C. for 5 min. in a final volume of 100 μL Tris-HCl buffer (100 mM, pH 8.0) containing 1 mM EDTA, 10 mM CaCl2, and E. coli (containing […] phospholipid). The test compound or control vehicle was preincubated with PLA2 for 5 min. followed by adding E. coli to initiate the reaction. The reaction was terminated by adding 2 mL tetrahydrofuran. The reaction product [^14 C]-oleic acid, was isolated using a 1 mL Bond Elute--NH2 column and counted by liquid scintillation spectrometry.

Another assay has as its system HL-60 cells. Put plainly: HL-60 Cell Assay for LTB4 and PGE2 Production (calcium ionophore A23187 induced). The conditions noted are these: Homo sapiens; for IC50: A23187 5×10^-6 M. Format: cell-based. The procedure:
An additional whole cell assay was also performed. In this assay, HL-60 cells are induced with the calcium ionophore A23187 in the presence of varying amounts of inhibitor, and the amounts of the prostaglandin E2 (PGE2) and leukotriene B4 (LTB4) which form are measured. Calcium ionophore A23187 activates a calcium-dependent PLA2 which leads to the enhanced production of the arachidonic acid metabolites PGE2 and LTB4. The concentrations of inhibitor which decrease the production of PGE2 and LTB4 by 50% relative to controls are expressed as IC50 values.
HL-60 Cell Assay for LTB4 and PGE2 Production
HL-60 cells grown exponentially in culture were induced to differentiate into granulocytes by a four day incubation with 0.8% (v/v) N,N-dimethylformamide. Prior to assay, differentiated HL-60 cells were washed once with Hanks' balanced salt solution containing 0.35 mg/mL sodium bicarbonate and 10 mM Hepes, pH 7.3 (HBSS) and resuspended in HBSS at a 3×10^6 cells/mL concentration. DMSO or test compounds solubilized in DMSO were added at 1:100 dilution to 1.0 mL HL-60 cell suspensions (3×10^6 cells) and preincubated at 37° C. for 10 min. in a shaking water bath. After an additional 5 min. incubation with 5×10^-6 M calcium ionophore, A23187 (Calbiochem, LaJolla, Calif.), the cells were centrifuged at 12,800×6 for 15 seconds and the supernatant (0.8 mL) removed and stored at -20° C. for LTB4 and PGE2 quantitation by radioimmunoassay (kits obtained from Amersham, United Kingdom and NEN Research Products, N. Billerica, Mass.).

For the next assay, the system named is rat neonatal myocytes. The settings on record: rat neonatal myocytes treated with iodoacetate; Sen et al (cited); cited from earlier work.
The mark [3] stands for this setting: human synovial fluid, read-out: IC50 HSF PLA2.
Where [4] appears, read: pH 8.0, 10 mM CaCl2, 5 min at 37° C., ">>" = little or no inhibition at highest concentration used, read-out: IC50 Porcine Pancreatic PLA2.
Setting [5] is: LTB4 production, ">>" = little or no inhibition at highest concentration used, read-out: IC50 HL-60 LTB4.
[6] abbreviates: PGE2 production, ">" inhibition but not enough for IC50, ">>" little or no inhibition at highest concentration, read-out: IC50 HL-60 PGE2.
Setting [7] is: IC50 HSF PLA2, human synovial fluid.

The IC50 is the midpoint of a concentration-inhibition curve. In the case of `CCCCCCCCCCCC#Cc1ccccc1/C=C(\C(=O)OCC)P(=O)(OCC)OCC` [Example 5, Ethyl 2-(diethoxyphosphinyl)-3-[2-(1-tridecynyl)phenyl]-2-E-propenoate], the IC50 in assay [1] was 340 nM; in assay [2] (setting [3]) it was more than 100000 nM; with sheep platelet PLA2, 2400 nM; at porcine pancreatic PLA2 (setting [4]), more than 100000 nM; with HL-60 cells (setting [5]) it was 1300 nM; in the assay on HL-60 cells (setting [6]), 2300 nM.

Regarding `CCCCCCCCC(=O)NCC#Cc1ccccc1C=C(P(=O)(OCC)OCC)P(=O)(OCC)OCC` [Example 18, Tetraethyl [2-[2-[3-[(1-oxononyl)amino]-1-propynyl]phenyl]ethenylidene]bisphosphonate], the IC50 in assay [1] was more than 100000 nM; in the assay with sheep platelet PLA2, approximately 100000 nM.

Consider `CCCCCCCCCCCC#Cc1ccccc1C=C(P(=O)(O)O)P(=O)(O)O` [Example 10, [2-[2-(1-Tridecynyl)phenyl]ethenylldene]bisphosphonic acid], for which the IC50 in assay [1] was 710 nM; in assay [2] (setting [3]), 50000 nM; in the assay with sheep platelet PLA2, 50000 nM; at porcine pancreatic PLA2, more than 100000 nM; in the assay on HL-60 cells (setting [5]) it was 10000 nM; with HL-60 cells (setting [6]), more than 10000 nM. For the same compound, the activation at 10 µM with HL-60 cells (footnote b to the entry 10 (μM), + = activation, LTB4) turned out to be 21%.

For the compound `CCCCCCCCCCCC#Cc1ccccc1C=C(P(=O)(O)O)P(=O)(O)O` [Example 11, Disodium [2-[2-(1-tridecynyl)phenyl]ethenylidene]bisphosphonate], the IC50 in assay [1] came to 1900 nM; in assay [2] (setting [7]), 25000 nM; in the assay with sheep platelet PLA2 it was 2800 nM.

Take `CCCCCCCCCCCC#Cc1ccccc1C=C(P(=O)(OCC)OCC)P(=O)(OCC)OCC` [Example 9, Tetraethyl [2-[2-(1-tridecynyl)phenyl]ethenylidene]bisphosphonate]: the IC50 in assay [1] was 1500 nM; in assay [2] (setting [3]), more than 100000 nM; in the assay with sheep platelet PLA2, 160 nM; in the assay on HL-60 cells (setting [5]), 2600 nM; in the assay with HL-60 cells (setting [6]), 4400 nM.

For the compound `CCCCCCCCCCCC#Cc1ccccc1/C=C(\C(=O)OCC)P(=O)(O)O` [Example 6, Ethyl E-2-phosphono-3-[2-(1-tridecynyl)phenyl]propenoate], the IC50 in assay [2] (setting [3]) came to 16000 nM; on porcine pancreatic PLA2 (setting [4]), 2500 nM; in the assay with HL-60 cells (setting [5]) it was 4400 nM; in the assay on HL-60 cells (setting [6]) it was 3500 nM.

For the compound `CCCCCCCCCCCC#Cc1ccccc1/C=C/P(=O)(OCC)OCC` [Example 13, Diethyl E-2-[2-(1-tridecynyl)phenyl]ethenylphosphonate], the IC50 in assay [1] amounted to 3000 nM; in the assay on sheep platelet PLA2 it was 1100 nM.

`COC1=CCC2=C(CCC3C2CC[C@@]2(C)C3CC[C@@H]2N(C)CCCN(C)C)C1` (some centres unmarked) [U26,384]: in the assay on rat neonatal myocytes, the “release of arachidonic acid, phospholipid degradation, sarcolemmal membrane defects and release of creatine kinase induced by iodoacetate” value was “prevented the release of arachidonic acid, phospholipid degradation, sarcolemmal membrane defects and the release of creatine kinase”.

For the compound `CCCCCCCCCCCC#Cc1cccc(C=C(P(=O)(OCC)OCC)P(=O)(OCC)OCC)c1` [Example 1, Tetraethyl [2-[3-(1-tridecynyl)phenyl]ethenylidene]bisphosphonate], the IC50 in assay [1] is 560 nM; in assay [2] (setting [3]) it was more than 100000 nM; in the assay with sheep platelet PLA2, 180 nM; at porcine pancreatic PLA2 (setting [4]) it was 100000 nM; in the assay on HL-60 cells (setting [5]), 1200 nM; in the assay on HL-60 cells (setting [6]) it was 3000 nM. At porcine pancreatic PLA2 (5 min, footnote a to the entry 100 (μM), + = activation), the activation at 100 µM is 40%.

Turning to `CCCCCCCCCCCC#Cc1ccccc1/C=C/P(=O)(O)O` [Example 14, 2-[2-(1-Tridecynyl)phenyl]ethenylphosphonic acid], the values for the IC50 (in assay [1]; in the assay on sheep platelet PLA2) were 4500 nM and 2900 nM, respectively.

As to `CCCCCCCCCCCC#Cc1cccc(C=C(P(=O)(O)O)P(=O)(O)O)c1` [Example 3, Disodium [2-[3-(1-tridecynyl)phenyl]ethenylidene]bisphosphonate], the IC50 in assay [1] worked out at 360 nM; in assay [2] (setting [7]), 38000 nM; with sheep platelet PLA2, 3200 nM.

As to `CCCCCCCCCCCC#Cc1cccc(P(=O)(OCC)OCC)c1` [Example 8, Diethyl [3-(1-tridecynyl)phenyl]phosphonate], the IC50 in assay [1] was 360 nM; in the assay with sheep platelet PLA2, 220 nM.

For `CCCCCCCCCCCC#Cc1cccc(C=C(P(=O)(O)O)P(=O)(O)O)c1` [Example 2, [2-[3-(1-Tridecynyl)phenyl]ethenylidene]bisphosphonic acid], the concentration for half-maximal inhibition (IC50) in assay [1] is 450 nM; in assay [2] (setting [3]) it was 31000 nM; with sheep platelet PLA2, 11000 nM; at porcine pancreatic PLA2, more than 100000 nM; in the assay on HL-60 cells (setting [5]) it was more than 10000 nM; with HL-60 cells (setting [6]) it was more than 10000 nM.
